How the values were obtained:
Caco-2 = experiment: In vitro anti-proliferative activity (MTT assay); format: cell-based, human; settings: for IC50: Homo sapiens, Caco-2, mean of three replicates
Protocol: (§1) To assess the antiproliferative effects of the targeted candidates, an MTT assay[29–31] was performed against four cancer cell lines: lung carcinoma epithelial (A549), colon cancer (Caco-2), hepatocellular cancer (HepG2), and breast cancer (MDA-MB-231).
(§2) Anti-proliferative activities were assessed using the MTT assay[31]^,[46] and were explained intensely in Supplementary data. […]
(§3) a- Mammalian cell lines culture
(§4) Lung carcinoma epithelial (A549), colon cancer (Caco-2)cell lines were cultured on DMEM media, meanwhile hepatocellular cancer (HepG2), and breast cancer (MDA-MB-231) cell lines were cultured on RBMI media. The cultured media were supplement ed with 200 mM L-glutamine, 10.0% fetal bovine serum (Lonza), and 1.0% penicillin/streptomycin. Cells were seeded into 25.0 cm tissue culture flasks and incubated at 37 ◦C in a 5.0% CO2 incubator for 24 h or till confluency.
(§5) The safety profiles of the tested compounds were checked on one non-cancerous cell line (Vero) to […]
(§6) of 100.0 µl of 6×10^4 cell/ml cells was seeded in to each well of a 96-well plate and then the plates were incubated at 37 °C in a humidified 5.0% CO2 incubator for 24 h. At the end of incubation period, the exhausted medium was replaced with 100.0 µl of different concentrations of the designated treatment (prepared in RPMI medium starting from 1.0 mM). The inoculated plates were incubated at the same growth conditions for another 24 h. At the end of incubation, cellular viability was assessed using MTS assay kit (Promega) according to the manual instruction. c- In-vitro anticancer activity
(§7) Anticancer activities of the tested compounds against lung carcinoma epithelial (A549), colon cancer (Caco-2), hepatocellular cancer (HepG2), and breast cancer (MDA-MB-231) cell lines were quantified using MTS assay kit (Promega) as described by the Manufacturer. d- Selectivity index (SI)
(§8) The selectivity index values of the tested compounds on cancer cells were calculated as described by Koch et al., with slight modifications; SI=IC50nc/IC50cc, where IC50nc: the IC50 value of the tested compound on normal cells and IC 50cc: IC50 of the tested compound on cancer cell line . […]

[1] = In vitro anti-proliferative activity (MTT assay); format: cell-based, human; settings: African green monkey (Vero) / human (Caco-2); IC50 on normal (Vero) cells / IC50 on Caco-2; read-out: Selectivity index Caco-2
Protocol: as §1, §2, §3, §4, §5, §6, §7, §8

[2] = Cytotoxicity against normal cells (safety assay); format: cell-based; settings: African green monkey, Vero cells (non-cancerous cell line)
Protocol: The cytotoxic activities of the synthesised against normal cells were evaluated against the Vero cell line utilising an MTT assay.
The safety profiles were examined on Vero cells (non-cancerous cell line) and was explained intensely in Supplementary data[48]. […]
a- Mammalian cell lines culture […]
(§9) RBMI media. The cultured media were supplement ed with 200 mM L-glutamine, 10.0% fetal bovine serum (Lonza), and 1.0% penicillin/streptomycin. Cells were seeded into 25.0 cm tissue culture flasks and incubated at 37 ◦C in a 5.0% CO2 incubator for 24 h or till confluency.
as §5
as §6, with “c- In-vitro anticancer activity” left out

A549 = experiment: In vitro anti-proliferative activity (MTT assay); format: cell-based, human; settings: for IC50: Homo sapiens, A549, mean of three replicates; for Selectivity index A549: IC50 on normal (Vero) cells / IC50 on A549
Protocol: as §2, §3
(§10) Lung carcinoma epithelial (A549), colon cancer (Caco-2)cell lines were cultured on DMEM media, […]
as §9, §5, §6
(§11) Anticancer activities of the tested compounds against lung carcinoma epithelial (A549), colon cancer […]
(§12) quantified using MTS assay kit (Promega) as described by the Manufacturer. d- Selectivity index (SI)
as §8

HepG2 = experiment: In vitro anti-proliferative activity (MTT assay); format: cell-based, human; settings: for IC50: Homo sapiens, HepG2, HepG-2, mean of three replicates; for Selectivity index HepG2: IC50 on normal (Vero) cells / IC50 on HepG2
Protocol: as §2, §3, §10, §9, §5, §6, §11, §12, §8

MDA-MB-231 = experiment: In vitro anti-proliferative activity (MTT assay); format: cell-based, human; settings: for IC50: Homo sapiens, MDA-MB-231, MDA-MB231, mean of three replicates; for Selectivity index MDA-MB231: IC50 on normal (Vero) cells / IC50 on MDA-MB231
Protocol: as §2, §3, §10, §9, §5, §6, §11, §12, §8

Caco-2 cells [3] = experiment: Wound healing assay (migration assay); format: cell-based, human
Protocol: In this test, Caco-2 cells were allowed to grow then, a wound was formed on the cell layer. Next, the cells were incubated with the sub IC50 dose of compound 7. The results of wound healing were compared to the untreated cell line. Figure 4 illustrates the degree of wound healing caused by compound 7 compared to the control cells.
Was performed as the described protocol[50] and was explained intensely in Supplementary data. […]
as §3
Lung carcinoma epithelial (A549), colon cancer (Caco-2)cell lines were cultured on DMEM media, meanwhile hepatocellular cancer (HepG2), and breast cancer (MDA-MB-231) cell lines were cultured on RBMI media. […]
of 100.0 µl of 6×10^4 cell/ml cells was seeded in to each well of a 96-well plate and then the plates were incubated at 37 °C in a humidified 5.0% CO2 incubator for 24 h. […] At the end of incubation, cellular viability was assessed using MTS assay kit (Promega) according to the manual instruction. c- In-vitro anticancer activity
Anticancer activities of the tested compounds against lung carcinoma epithelial (A549), colon cancer (Caco-2), hepatocellular cancer (HepG2), and breast cancer (MDA-MB-231) cell lines were quantified using MTS assay kit (Promega) as described by the Manufacturer. d- Selectivity index (SI) […]

Caco-2 cells [4] = experiment: Flow cytometric cell cycle analysis; format: cell-based, human; settings: Caco-2, 90 µM, 24 h
From the text: Employing the flowcytometry technique, the cell cycle pattern of the untrated Caco-2 cancer cells (Figure 6(A)) was compared with that of the treated cells with compound 7.

VEGFR-2 = biological target: T1, VEGFR-2 (Homo sapiens, UniProt P35968); experiment: In vitro VEGFR-2 kinase assay (VEGFR-2 ELISA kit); format: biochemical; settings: for HillSlope (best-fit value), VEGFR-2 inhibition / LogIC50 (best-fit value), VEGFR-2 inhibition: dose-response fit, supplement; for IC50: mean of three replicates, read-out: VEGFR-2 inhibitory activity IC50
T1 construct: purchased
T1 sequence (P35968 20-1356): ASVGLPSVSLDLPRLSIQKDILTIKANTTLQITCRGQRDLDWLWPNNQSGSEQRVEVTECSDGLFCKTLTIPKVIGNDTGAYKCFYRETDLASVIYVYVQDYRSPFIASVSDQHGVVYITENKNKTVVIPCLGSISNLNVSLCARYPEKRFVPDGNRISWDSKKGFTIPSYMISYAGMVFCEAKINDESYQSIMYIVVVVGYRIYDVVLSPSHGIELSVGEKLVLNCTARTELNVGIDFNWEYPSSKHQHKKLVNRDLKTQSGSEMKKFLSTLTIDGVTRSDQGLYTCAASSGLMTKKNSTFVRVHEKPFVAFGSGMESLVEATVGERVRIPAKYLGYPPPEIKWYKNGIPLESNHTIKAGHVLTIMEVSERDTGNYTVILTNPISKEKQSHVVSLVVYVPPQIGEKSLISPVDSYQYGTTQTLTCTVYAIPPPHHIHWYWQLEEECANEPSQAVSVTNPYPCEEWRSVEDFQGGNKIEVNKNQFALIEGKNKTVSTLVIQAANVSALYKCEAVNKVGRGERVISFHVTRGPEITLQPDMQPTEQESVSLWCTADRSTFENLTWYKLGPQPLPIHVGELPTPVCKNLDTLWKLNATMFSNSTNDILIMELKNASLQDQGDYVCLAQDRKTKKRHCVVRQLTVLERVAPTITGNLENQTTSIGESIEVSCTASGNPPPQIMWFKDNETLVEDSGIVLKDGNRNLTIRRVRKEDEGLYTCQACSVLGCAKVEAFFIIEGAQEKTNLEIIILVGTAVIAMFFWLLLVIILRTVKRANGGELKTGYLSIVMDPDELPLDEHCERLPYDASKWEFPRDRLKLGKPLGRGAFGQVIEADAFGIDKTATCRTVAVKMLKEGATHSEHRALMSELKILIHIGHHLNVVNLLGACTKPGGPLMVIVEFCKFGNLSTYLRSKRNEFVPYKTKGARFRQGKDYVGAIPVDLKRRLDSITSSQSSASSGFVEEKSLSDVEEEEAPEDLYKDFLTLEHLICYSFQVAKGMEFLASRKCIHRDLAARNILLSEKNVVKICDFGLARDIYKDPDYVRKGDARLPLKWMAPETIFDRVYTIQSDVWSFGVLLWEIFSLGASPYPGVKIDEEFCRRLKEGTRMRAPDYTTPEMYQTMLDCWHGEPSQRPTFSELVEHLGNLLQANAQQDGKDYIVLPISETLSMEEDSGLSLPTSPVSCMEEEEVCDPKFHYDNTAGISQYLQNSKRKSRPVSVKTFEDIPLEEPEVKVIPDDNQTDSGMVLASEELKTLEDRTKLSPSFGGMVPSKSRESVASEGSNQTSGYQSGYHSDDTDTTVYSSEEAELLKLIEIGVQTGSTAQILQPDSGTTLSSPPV
Protocol: As the main target in this work is the design and synthesis of promising VEGFR-2 inhibitors, we subjected the synthesised compounds to in vitro VEGFR-2 inhibitory assay to assess the ability of these compounds to obstacle the kinase activity of VEGFR-2.
Was tested using a VEGFR-2 ELISA kit and was explained intensely in Supplementary data[47].

TGF = experiment: RT-qPCR gene expression in Caco-2 cells; format: cell-based, human; settings: Caco-2, 90 µM, 24 h
Protocol: (§13) RT-qPCR technique was applied to assess the expression levels of Bcl2, Bcl-xl, Survivin, and TGF in Caco-2 cells after treatment with compound 7 for 24 h. […] On the other hand, such a compound produced an upregulation effect of the TGF gene.
(§14) Bcl2, Bcl-xl, TGF and Survivin genes levels were evaluated as reported[51] and was explained intensely in Supplementary data. […]
(§15) f- Gene expression pattern alternation of cancer cell after treatment with compound 7.
(§16) The molecular anticancer mode of action of 7 was investigated by screening their ability to affect the gene expression levels of Bcl2, Bcl-xl, TGF and Survivin genes using specific forward and reverse primers and RTq-PCR technique (Table 1) in CaCo-2 cells (chosen as the most sensitive cancer cell line). After cellular treatment, CaCo-2 cell line was cultured into 12 well plates (6×10^3 cell/ml) for 24 h. with the sub -IC50 concentration of 7. After treatment, total RNA extraction was performed using RNA extraction kit (Qiagen, Germany). Then, 1 ug of the obtained RNA was used to synthesiz cDNA using cDNA synthesis kit (Promega Corp., Madison, WI) as recommended by the manufacturer . Simultaneously, GAPDH forward and reverse primers (Table 1) were used to amplify the house keeping gene as internal control for standardization of PCR products. The RTq -PCR was done using SYBR Green dye (QuantiTect SYBR Green PCR Kits) and Light Cycler fluorimeter (Bio-RAD S1000 Tm thermal cycler). The PCR cycling program was as follows: 95 °C for 2 min, followed by 40 cycles of 95 °C for 30s, 55 °C for 30 s, and 60 °C for 45s, and finally 60 °C for 5 min. […]

Bcl-xl = experiment: RT-qPCR gene expression in Caco-2 cells; format: cell-based, human; settings: Caco-2, 90 µM, 24 h
Protocol: as §13, §14, §15, §16

Survivin = experiment: RT-qPCR gene expression in Caco-2 cells; format: cell-based, human; settings: Caco-2, 90 µM, 24 h
Protocol: as §13, §14, §15, §16

Bcl2 = experiment: RT-qPCR gene expression in Caco-2 cells; format: cell-based, human; settings: Caco-2, 90 µM, 24 h
Protocol: as §13, §14, §15, §16

Row | SMILES | IC50 (Caco-2) | selectivity ratio [1] | IC50 at 24 h [2] | IC50 (A549) | Selectivity index A549 (A549) | IC50 (HepG2) | Selectivity index HepG2 (HepG2) | IC50 (MDA-MB-231) | Selectivity index MDA-MB231 (MDA-MB-231) | HillSlope (best-fit value), VEGFR-2 inhibition (VEGFR-2) | LogIC50 (best-fit value), VEGFR-2 inhibition (VEGFR-2) | IC50 (VEGFR-2) | further results
1 | COc1cccc2c1C(=O)c1c(O)c3c(c(O)c1C2=O)C[C@@](O)(C(=O)CO)C[C@@H]3O[C@H]1C[C@H](N)[C@H](O)[C@H](C)O1 [Doxorubicin, reference compound] | 8.2 ± 0.21 µM | 3.05 | 25 ± 1.41 µM | 7 ± 0.22 µM | 3.57 | 2.8 ± 0.07 µM | 8.93 | 9 ± 0.77 µM | 2.78 |  |  |  | 
2 | COc1ccc2[nH]c(=O)c(/C=C3\SC(=O)N(CC(=O)Nc4ccccc4)C3=O)cc2c1 [Compound 7, (Z)-2–(5-((6-Methoxy-2-oxo-1,2-dihydroquinolin-3-yl)methylene)-2,4-dioxothiazolidin-3-yl)-N-phenylacetamide] | 93.5 ± 0.71 µM | 4.71 | 440 ± 14.1 µM | 159 ± 14 µM | 2.77 | 150 ± 7.07 µM | 2.93 | 122 ± 7.01 µM | 3.59 | -0.4960 | 2.138 Log (nM) |  | diameter of the wound, treated cells (Figure 4A) (Caco-2 cells [3]; Caco-2, 90 µM, time not stated): 0.3058 mm; effect on wound healing (Caco-2 cells [3]; Caco-2, sub IC50 dose (90 µM)): prevent wound healing; cell cycle arrest (Caco-2 cells [4]): cellular arrest in sub G0 (Apoptotic phase); cell population in S phase (Caco-2 cells [4]; untreated 24.7%): 13.1%; cell population in G0/G1 phase (Caco-2 cells [4]; untreated 51.7%): 46.4%; Relative expression of TGF gene (TGF): upregulation; Relative expression of Bcl-xl gene (Bcl-xl): down-regulating; Relative expression of Survivin gene (Survivin): down-regulating; Relative expression of Bcl2 gene (Bcl2): down-regulating
3 | COc1ccc(NC(=O)CN2C(=O)S/C(=C\c3cc4cc(OC)ccc4[nH]c3=O)C2=O)cc1 [Compound 8, (Z)-2–(5-((6-Methoxy-2-oxo-1,2-dihydroquinolin-3-yl)methylene)-2,4-dioxothiazolidin-3-yl)-N-(4-methoxyphenyl)acetamide] | 190 ± 9.11 µM | 0.79 | 150 ± 14.1 µM | 196 ± 70 µM | 0.77 | 134 ± 1.41 µM | 1.12 | 130 ± 5.6 µM | 1.15 | -0.3463 | 2.272 Log (nM) | 187 nM | 
4 | COc1ccc2[nH]c(=O)c(/C=C3\SC(=O)N(CC(=O)Nc4ccccc4C)C3=O)cc2c1 [Compound 9, (Z)-2–(5-((6-Methoxy-2-oxo-1,2-dihydroquinolin-3-yl)methylene)-2,4-dioxothiazolidin-3-yl)-N-(o-tolyl)acetamide] | 167 ± 4.2 µM | 1.17 | 196 ± 2.8 µM | 51 ± 4.2 µM | 3.84 | 145 ± 3.5 µM | 1.35 | 188 ± 7.01 µM | 1.04 | -0.5262 | 1.994 Log (nM) | 98.5 nM | times as active as sorafenib (VEGFR-2; VEGFR-2 inhibition): 0.54 times
5 | COc1ccc(NC(=O)CN2C(=O)S/C(=C3\C(=O)Nc4ccccc43)C2=O)cc1 [Compound 14] | 5.7 ± 0.07 µM |  | 30 ± 1.35 µM | 54 ± 1.4 µM |  | 149 ± 7.01 µM |  | 9 ± 0.51 µM |  |  |  | 85.9 nM | times as active as doxorubicin (Caco-2; Caco-2 cells): 1.44 times

Source: publication PMC9387325, “New quinoline and isatin derivatives as apoptotic VEGFR-2 inhibitors: design, synthesis, anti-proliferative activity, docking, ADMET, toxicity, and MD simulation studies” (Journal of Enzyme Inhibition and Medicinal Chemistry, 2022)
